Series [1] deals with T1, rat TRPV1 (rTRPV1) (Rattus norvegicus, UniProt O35433).
T1 construct: expressed in transfected cells
Description: Fluo-4 intracellular calcium assay, inhibition of capsaicin-induced [Ca2+] response in CHO cells expressing rTRPV1. The format is cell-based. The method, then: (§1) The guanidine alkaloids (1–4) were tested on inhibitory activities against rTRPV1 (Figure 2A), mTRPV2 (Figure 2B), hTRPV3 (Figure 2C) and rTRPA1 receptors expressed in CHO (Chinese hamster ovary) cells in a Fluo-4–based intracellular calcium assay.
(§2) Figure 2 Dose-response curves for monanchomycalin B (1), urupocidin A (2), semi-synthetic urupocidin A derivatives (3, 4) inhibitory activity on agonist-induced [Ca^2+] responses in CHO cells expressing rTRPV1 (A); mTRPV2 (B); hTRPV3 (C). Responses were measured as the pseudo-ratio (ΔFI/FI) determined using the following formula ΔFI/FI = (FI-FIbase)/FIbase, where FI is the measured peak fluorescence intensity, Fbase is the fluorescence intensity in non-stimulated cells. Inhibitory activity was expressed as the percentage of the response in the control experiment (untreated by alkaloids cells). Data are expressed as mean ± s.e. (n = 4–8).
(§3) The effect of 1–4 on all the TRP-expressing cells was measured after preincubation at 37 °C for 30 min for standardization. […] Capsazepine (CZP) or non-specific blocker ruthenium red (RR) were used as a positive control for TRPV1 and for the other studied TRP receptors correspondingly.
(§4) The mouse TRPV2 gene was cloned form pancreatic beta cell line MIN6 and the CHO cell line stably expressing mouse TRPV2 was generated using T-Rex System (Thermo Fisher Scientific Inc., Waltham, MA, USA) similarly previously obtained stable cell lines for rat TRPV1, human TRPV3 and rat TRPA1 [6, 8]. Fluorescent assays were performed as described in [6]. The alkaloid’s solutions of desired concentration were obtained by serial dilution of water stock solutions (10 mg/mL) in calcium assay buffer (10 mM HEPES/HBSS, pH 7.4). The buffer alone (negative control) or serial dilutions of alkaloids 1–4 (20 μl) were added to the cells loaded with the cytoplasmic calcium indicator Fluo-4AM using Fluo-4 Direct™ Calcium Assay Kit (Thermo Fisher Scientific Inc., Waltham, MA, USA) (80 μl) and the cells were incubated 30 min at 37 °C. Changes in cell fluorescence (λex = 485 nm, λem = 520 nm) were monitored using NOVO star (BMG LABTECH, Ortenberg, Germany) before and after the addition of relevant agonist (500 nM capsaicin for rTRPV1, 300 μM 2APB for mTRPV2, 200 μM 2APB for hTRPV3, 100 μM AITC for rTRPA1) at 25 °C. Average cell responses to agonists in controls were about 60, 45, 40, 85% of the responses produced by 5 μM ionomycin for rTRPV1, mTRPV2, hTRPV3, rTRPA1 correspondingly. To avoid the spread of the data due to prolonged instrumental measurement each experimental point has control in the nearest plate wells. Curve fitting and parameter estimations were performed with Microsoft Excel 2007 (Microsoft Corporation, Redmond, WA, USA) and Origin 7.0 (OriginLab Corporation, Northampton, MA, USA). The EC50 values were determined as the concentration of test substance required to produce half-maximal decreases in [Ca^2+].
In general terms: Calcium flux is commonly read through the fluorescence of an indicator in the cells.

A further series concerns the target T2, mouse TRPV2 (mTRPV2) (Mus musculus, UniProt Q9WTR1).
T2 construct: expressed in transfected cells
T2 sequence (Q9WTR1 1-756): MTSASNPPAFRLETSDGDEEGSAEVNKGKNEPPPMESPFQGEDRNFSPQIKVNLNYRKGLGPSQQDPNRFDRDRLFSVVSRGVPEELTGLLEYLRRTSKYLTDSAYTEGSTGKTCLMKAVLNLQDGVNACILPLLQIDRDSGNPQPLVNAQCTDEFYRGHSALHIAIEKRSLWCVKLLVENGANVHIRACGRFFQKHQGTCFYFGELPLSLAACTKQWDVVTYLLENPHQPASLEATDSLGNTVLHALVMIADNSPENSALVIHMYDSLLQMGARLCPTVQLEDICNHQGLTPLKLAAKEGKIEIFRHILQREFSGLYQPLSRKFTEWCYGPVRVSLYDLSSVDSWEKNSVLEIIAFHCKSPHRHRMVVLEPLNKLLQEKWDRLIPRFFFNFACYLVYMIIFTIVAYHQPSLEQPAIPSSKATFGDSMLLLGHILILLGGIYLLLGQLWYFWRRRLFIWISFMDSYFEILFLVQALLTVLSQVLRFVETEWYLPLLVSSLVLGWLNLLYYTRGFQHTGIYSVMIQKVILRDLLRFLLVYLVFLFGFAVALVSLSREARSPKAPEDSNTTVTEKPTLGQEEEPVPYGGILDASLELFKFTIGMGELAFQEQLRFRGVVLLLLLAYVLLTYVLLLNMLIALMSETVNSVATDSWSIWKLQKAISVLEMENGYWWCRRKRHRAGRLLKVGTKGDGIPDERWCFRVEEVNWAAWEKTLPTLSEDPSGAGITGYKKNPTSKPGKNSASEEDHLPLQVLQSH
As to the kind of experiment: Fluo-4 intracellular calcium assay, inhibition of 2APB-induced [Ca2+] response in CHO cells expressing mTRPV2. The format is cell-based. The method, then: as §1, §2, §3
The mouse TRPV2 gene was cloned form pancreatic beta cell line MIN6 and the CHO cell line stably expressing mouse TRPV2 was generated using T-Rex System (Thermo Fisher Scientific Inc., Waltham, MA, USA) similarly previously obtained stable cell lines for rat TRPV1, human TRPV3 and rat TRPA1 [6, 8]. Fluorescent assays were performed as described in [6]. […] Changes in cell fluorescence (λex = 485 nm, λem = 520 nm) were monitored using NOVO star (BMG LABTECH, Ortenberg, Germany) before and after the addition of relevant agonist (500 nM capsaicin for rTRPV1, 300 μM 2APB for mTRPV2, 200 μM 2APB for hTRPV3, 100 μM AITC for rTRPA1) at 25 °C. […] The EC50 values were determined as the concentration of test substance required to produce half-maximal decreases in [Ca^2+].

For series [2], the target named is T3, human TRPV3 (hTRPV3) (Homo sapiens, UniProt Q8NET8).
T3 construct: expressed in transfected cells
T3 sequence (Q8NET8 1-790): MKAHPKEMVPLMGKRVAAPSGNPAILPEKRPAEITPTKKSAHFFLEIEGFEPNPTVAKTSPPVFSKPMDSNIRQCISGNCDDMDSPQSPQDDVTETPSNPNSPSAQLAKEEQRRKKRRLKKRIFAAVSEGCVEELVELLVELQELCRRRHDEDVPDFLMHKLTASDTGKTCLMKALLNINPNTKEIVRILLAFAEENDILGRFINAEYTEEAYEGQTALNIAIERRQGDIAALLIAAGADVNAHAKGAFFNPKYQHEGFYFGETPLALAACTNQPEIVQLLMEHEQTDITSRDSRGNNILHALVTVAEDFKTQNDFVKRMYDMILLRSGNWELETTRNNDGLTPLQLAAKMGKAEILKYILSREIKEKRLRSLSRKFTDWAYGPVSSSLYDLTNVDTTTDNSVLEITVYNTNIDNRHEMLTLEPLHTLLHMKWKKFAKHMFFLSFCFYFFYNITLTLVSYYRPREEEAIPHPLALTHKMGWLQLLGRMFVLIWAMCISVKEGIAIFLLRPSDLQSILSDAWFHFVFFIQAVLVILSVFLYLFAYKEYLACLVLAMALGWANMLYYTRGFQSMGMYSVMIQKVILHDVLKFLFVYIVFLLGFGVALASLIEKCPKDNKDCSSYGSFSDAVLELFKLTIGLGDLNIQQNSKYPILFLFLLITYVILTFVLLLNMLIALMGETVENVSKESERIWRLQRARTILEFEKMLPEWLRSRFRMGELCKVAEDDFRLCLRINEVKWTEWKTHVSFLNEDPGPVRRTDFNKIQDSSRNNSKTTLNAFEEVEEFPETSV
Description: Fluo-4 intracellular calcium assay, inhibition of 2APB-induced [Ca2+] response in CHO cells expressing hTRPV3. The format is cell-based. The method, then:
as §1, §2, §3, §4

For series [3], the target named is T4, rat TRPA1 (rTRPA1) (Rattus norvegicus, UniProt Q6RI86).
T4 construct: expressed in transfected cells
T4 sequence (Q6RI86 whole entry): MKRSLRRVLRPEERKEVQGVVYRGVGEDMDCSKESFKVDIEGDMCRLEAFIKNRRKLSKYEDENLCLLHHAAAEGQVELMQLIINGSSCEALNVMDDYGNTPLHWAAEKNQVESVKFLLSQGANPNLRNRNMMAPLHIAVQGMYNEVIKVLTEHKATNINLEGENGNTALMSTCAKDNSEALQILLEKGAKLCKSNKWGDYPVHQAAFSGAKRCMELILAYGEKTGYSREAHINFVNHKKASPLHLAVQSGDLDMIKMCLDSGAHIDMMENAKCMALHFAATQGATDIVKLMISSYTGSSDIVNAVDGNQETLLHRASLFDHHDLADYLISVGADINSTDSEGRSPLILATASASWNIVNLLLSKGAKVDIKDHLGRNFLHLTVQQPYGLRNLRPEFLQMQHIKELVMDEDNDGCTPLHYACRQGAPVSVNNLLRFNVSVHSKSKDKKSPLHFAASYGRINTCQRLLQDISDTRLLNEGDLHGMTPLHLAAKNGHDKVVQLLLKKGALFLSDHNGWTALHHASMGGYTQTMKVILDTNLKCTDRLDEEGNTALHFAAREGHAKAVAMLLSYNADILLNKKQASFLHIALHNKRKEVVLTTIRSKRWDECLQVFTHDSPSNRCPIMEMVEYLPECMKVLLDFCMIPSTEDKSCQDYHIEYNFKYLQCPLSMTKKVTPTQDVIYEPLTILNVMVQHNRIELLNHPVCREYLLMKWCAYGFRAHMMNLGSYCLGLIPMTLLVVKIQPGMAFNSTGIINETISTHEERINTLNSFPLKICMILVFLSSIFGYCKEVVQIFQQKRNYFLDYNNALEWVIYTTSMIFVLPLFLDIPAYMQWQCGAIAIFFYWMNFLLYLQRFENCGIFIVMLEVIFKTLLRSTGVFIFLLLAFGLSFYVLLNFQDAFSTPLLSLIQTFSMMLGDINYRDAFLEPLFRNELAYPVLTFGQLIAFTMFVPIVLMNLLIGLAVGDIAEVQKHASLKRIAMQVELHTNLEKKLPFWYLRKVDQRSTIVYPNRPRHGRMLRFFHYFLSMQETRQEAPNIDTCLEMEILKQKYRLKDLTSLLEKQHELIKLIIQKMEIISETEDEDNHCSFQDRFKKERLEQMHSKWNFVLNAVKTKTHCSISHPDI
As to the kind of experiment: Fluo-4 intracellular calcium assay, inhibition of AITC-induced [Ca2+] response in CHO cells expressing rTRPA1. The class given is cell-based. The conditions noted are these: for EC50 (µM) rTRPA1: inhibitory activity, CHO cells expressing rTRPA1, agonist 100 μM AITC, preincubation 30 min at 37 °C. As to the method: as §1, §3, §4

The subject of series [4] is HL-60 human leukemia cells. Also noted: method as in doi:10.1016/j.tetlet.2012.05.162. The conditions noted are these: cited from earlier work.
Series [5] deals with T1, rat TRPV1 (rTRPV1). Further details: method as in doi:10.1007/s10600-015-1243-6, doi:10.1016/j.tetlet.2012.12.099. The conditions noted are these: determined in the same test system; read-out: EC50, inhibitory activity against rTRPV1; cited from earlier work.
The target of series [6] is T3, human TRPV3 (hTRPV3). Also noted: method as in doi:10.1007/s10600-015-1243-6, doi:10.1016/j.tetlet.2012.12.099. The conditions noted are these: determined in the same test system; read-out: EC50, inhibitory activity toward hTRPV3; cited from earlier work.
The target in series [7] is T4, rat TRPA1 (rTRPA1). Also noted: method as in doi:10.1007/s10600-015-1243-6. To be noted: read-out: EC50, inhibition of rTRPA1; cited from earlier work.
Where [8] appears, read: inhibitory activity, CHO cells expressing rTRPV1, agonist 500 nM capsaicin, preincubation 30 min at 37 °C, mean ± s.e., read-out: EC50 (µM) rTRPV1.
[9] abbreviates: inhibitory activity, CHO cells expressing hTRPV3, agonist 200 μM 2APB, preincubation 30 min at 37 °C, mean ± s.e., read-out: EC50 (µM) hTRPV3.
The mark [10] stands for this setting: 20 µM RR, positive control, data not shown.

Where two headings read alike, the source gives them in different places.

T1 sequence (O35433 whole entry): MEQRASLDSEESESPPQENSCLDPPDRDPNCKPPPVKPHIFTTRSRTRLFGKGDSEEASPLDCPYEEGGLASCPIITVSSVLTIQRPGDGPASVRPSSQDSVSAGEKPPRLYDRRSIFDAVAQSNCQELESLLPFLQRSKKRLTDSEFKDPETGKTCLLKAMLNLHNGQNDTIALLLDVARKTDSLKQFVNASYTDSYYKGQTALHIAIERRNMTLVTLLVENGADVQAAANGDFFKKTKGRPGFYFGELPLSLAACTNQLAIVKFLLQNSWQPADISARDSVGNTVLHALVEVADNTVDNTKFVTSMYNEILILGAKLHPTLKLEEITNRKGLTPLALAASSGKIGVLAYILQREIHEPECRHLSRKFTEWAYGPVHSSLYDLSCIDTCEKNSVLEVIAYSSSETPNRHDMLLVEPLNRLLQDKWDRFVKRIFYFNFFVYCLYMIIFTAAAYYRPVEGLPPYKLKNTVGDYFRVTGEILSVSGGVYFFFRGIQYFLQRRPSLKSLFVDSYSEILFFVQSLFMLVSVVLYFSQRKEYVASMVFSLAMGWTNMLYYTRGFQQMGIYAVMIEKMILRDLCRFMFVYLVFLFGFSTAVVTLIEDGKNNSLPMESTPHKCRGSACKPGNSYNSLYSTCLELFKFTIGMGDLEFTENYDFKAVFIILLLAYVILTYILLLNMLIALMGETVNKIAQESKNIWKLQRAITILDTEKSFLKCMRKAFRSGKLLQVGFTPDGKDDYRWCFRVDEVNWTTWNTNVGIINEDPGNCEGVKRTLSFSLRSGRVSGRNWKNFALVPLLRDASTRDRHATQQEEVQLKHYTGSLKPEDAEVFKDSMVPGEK

Turning to `Oc1cc2c(cc1O)CN(C(=S)NCCc1ccc(Cl)cc1)CCC2` [CZP, Capsazepine, reference compound], on rat TRPV1 (rTRPV1) [1] (10 µM CZP, positive control, data not shown), the “Inhibition of the [Ca2+] response induced by specific agonist (TRPV1)” value is given as “full inhibition”.
Consider `CCC=CC1CCC2(CC3CCC4C(C(=O)OCCCCCCCCCCCCCCCC(=O)N(CCCN)CCCCN)C5(CCCC(C)O5)NC(=[N+]34)N2)O1` (stereo not drawn) [Compound 1, monanchomycalin B], for which the EC50 on rat TRPV1 (rTRPV1) [1] was 6.02 ± 0.36 µM; at mouse TRPV2 (mTRPV2) it was 2.84 ± 1.01 µM; on human TRPV3 (hTRPV3) [2], 3.25 ± 0.6 µM. In addition, on rat TRPA1 (rTRPA1) [3], the “EC50 (µM) rTRPA1” value is reported as “not active”. Also, in series [4], the “Cytotoxic activities against HL-60 human leukemia cells” value was “potent cytotoxic activities”.
As for `CCC/C=C\CC[C@@H](O)C[C@H]1CCC2=C(C(=O)OCCCCN(O)C(=N)N)[C@H](CC/C=C\CCC)NC(=N)N21` [Compound 2, urupocidin A], the EC50 was 21.5 ± 2.51 µM on rat TRPV1 (rTRPV1) [1] (setting [8]); 28.1 ± 6.65 µM at mouse TRPV2 (mTRPV2) (inhibitory activity, CHO cells expressing mTRPV2, agonist 300 μM 2APB, preincubation 30 min at 37 °C, mean ± s.e., read-out: EC50 (µM) mTRPV2); 23.6 ± 2.03 µM at human TRPV3 (hTRPV3) [2] (setting [9]). Also, the “EC50 (µM) rTRPA1” value at rat TRPA1 (rTRPA1) [3] is given as “not active”.
Consider `CCCCCCC[C@@H](O)C[C@H]1CCC2=C(C(=O)OCCCCN(O)C(=N)N)[C@H](CCCCCCC)NC(=N)N21` [Compound 3, Tetrahydrourupocidin A], for which the EC50 stood at 52.8 ± 5.31 µM at rat TRPV1 (rTRPV1) [1] (setting [8]) and 29.2 ± 3.18 µM on human TRPV3 (hTRPV3) [2] (setting [9]). In addition, the “EC50 (µM) rTRPA1” value on rat TRPA1 (rTRPA1) [3] is “not active”.
Turning to `CCC/C=C\CC[C@@H](O)C[C@H]1CCC2=C(C(=O)OC)[C@H](CC/C=C\CCC)NC(=N)N21` [Compound 4], at rat TRPV1 (rTRPV1) [1] (inhibitory activity, CHO cells expressing rTRPV1, agonist 500 nM capsaicin, preincubation 30 min at 37 °C, mean ± s.e.), the “EC50 (µM) rTRPV1” value is recorded as “almost not active”. Also, the results for the EC50 at rat TRPV1 (rTRPV1) [1] (setting [8]) and on human TRPV3 (hTRPV3) [2] (setting [9]) were 435 ± 49.9 µM and 193 ± 25.5 µM, respectively. In addition, the “EC50 (µM) hTRPV3” value on human TRPV3 (hTRPV3) [2] (inhibitory activity, CHO cells expressing hTRPV3, agonist 200 μM 2APB, preincubation 30 min at 37 °C, mean ± s.e.) was “almost not active”. For the same compound, the “EC50 (µM) rTRPA1” value at rat TRPA1 (rTRPA1) [3] was “not active”.
With `N.N.N.N.N.N.N.N.N.N.N.N.N.N.[Cl-].[Cl-].[Cl-].[Cl-].[Cl-].[Cl-].[O-2].[O-2].[Ru+3].[Ru+3].[Ru+4]` [RR, ruthenium red, reference compound], the “Inhibition of the [Ca2+] response induced by specific agonist (TRPV2)” value at mouse TRPV2 (mTRPV2) (setting [10]) is on record as “full inhibition”. Besides, at human TRPV3 (hTRPV3) [2] (setting [10]), the “Inhibition of the [Ca2+] response induced by specific agonist (TRPV3)” value is given as “full inhibition”. Besides, the “Inhibition of the [Ca2+] response induced by specific agonist (TRPA1)” value on rat TRPA1 (rTRPA1) [3] (setting [10]) was “full inhibition”.
Take `C1=C/[C@H]2[C@@H]3CCCC[C@H]3C[C@@H]2NCCCN[C@@H]2C[C@@H]3CCCC[C@H]3[C@@H]2/C=C/1` [haliclonadiamine]: the EC50 was 19.9 µM on rat TRPV1 (rTRPV1) [5], 77 µM at human TRPV3 (hTRPV3) [6] and 86.7 µM at rat TRPA1 (rTRPA1) [7].
In the case of pulchranin A, the EC50 on rat TRPV1 (rTRPV1) [5] is 27.5 µM; at human TRPV3 (hTRPV3) [6] it was 71.8 µM; on rat TRPA1 (rTRPA1) [7], 174 µM.

Usually EC50 stands for the concentration needed to bring the measured effect to its halfway point.

(Values after PMC5408233, “Marine Cyclic Guanidine Alkaloids Monanchomycalin B and Urupocidin A Act as Inhibitors of TRPV1, TRPV2 and TRPV3, but not TRPA1 Receptors” (Marine Drugs, 2017).)
